Results from ChEMBL document CHEMBL5247604, “Discovery of novel hybrids containing clioquinol-1-benzyl-1,2,3,6-tetrahydropyridine as multi-target-directed ligands (MTDLs) against Alzheimer's disease” (Eur J Med Chem, 2022).
Calls of active or inactive are those of the source. The calls are words filed in the database; no cut-off is given here.

Key:
[1] = target: Acetylcholinesterase (Electrophorus electricus, UniProt O42275); assay: Inhibition of electric eel AChE using acetylthiocholine iodide as substrate preincubated for 15 mins followed by substrate addition by Ellman's method
[2] = system: SH-SY5Y; assay: Neuroprotective activity in human SH-SY5Y cells assessed as inhibition of okadaic acid-induced mitochondrial membrane potential by measuring increase in red-to-green fluorescence intensity ratio pretreated for 24 hrs followed by okadaic acid addition for 24 hrs by JC-1 dye based fluorescence analysis; assay type: functional, cell-based
[3] = system: SH-SY5Y; assay: Antioxidant activity against okadaic acid-induced ROS generation in human SH-SY5Y cells assessed as reduction in DCF fluorescence intensity at 1 to 10 uM pretreated for 24 hrs followed by okadaic acid addition for 24 hrs by DCFH-DA dye based fluorescence analysis; assay type: functional, cell-based; details: dose 1-10 µM
[4] = system: SH-SY5Y; assay: Antioxidant activity against okadaic acid-induced ROS generation in human SH-SY5Y cells assessed as reduction in DCF fluorescence intensity pretreated for 24 hrs followed by okadaic acid addition for 24 hrs by DCFH-DA dye based fluorescence analysis; assay type: functional, cell-based
[5] = system: SH-SY5Y; assay: Antialzheimer activity in human SH-SY5Y cells assessed as inhibition of GA-induced tau hyperphosphorylation at Ser199 residue at 0.1 to 3 uM incubated for 24 hrs by ELISA; assay type: functional, cell-based; details: dose 0.1-3 µM
[6] = system: SH-SY5Y; assay: Antialzheimer activity in human SH-SY5Y cells assessed as inhibition of GA-induced tau hyperphosphorylation at Ser396 residue at 0.1 to 3 uM incubated for 24 hrs by ELISA; assay type: functional, cell-based; details: dose 0.1-3 µM
[7] = system: SH-SY5Y; assay: Antialzheimer activity in human SH-SY5Y cells assessed as inhibition of GA-induced tau hyperphosphorylation at Ser199 residue incubated for 24 hrs by ELISA; assay type: functional, cell-based
[8] = system: SH-SY5Y; assay: Antialzheimer activity in human SH-SY5Y cells assessed as inhibition of GA-induced tau hyperphosphorylation at Ser396 residue incubated for 24 hrs by ELISA; assay type: functional, cell-based
[9] = system: Mus musculus; assay: Antialzheimer activity in human oligo-merized amyloid beta (1 to 42 residues)-induced cognitive impairment C57BL/6 mouse model assessed as decrease in escape latency at 5 mg/kg,ip qd for 10 days by Morris water maze test relative to control; assay type: functional, organism-based; details: time 10.0 day
[10] = system: Mus musculus; assay: Antialzheimer activity in human oligo-merized amyloid beta (1 to 42 residues)-induced cognitive impairment C57BL/6 mouse model assessed as increase in percentage of time spent in the target quadrant at 5 mg/kg,ip qd for 10 days by Morris water maze test relative to control; assay type: functional, organism-based; details: time 10.0 day
[11] = system: Mus musculus; assay: Antialzheimer activity in human oligo-merized amyloid beta (1 to 42 residues)-induced cognitive impairment C57BL/6 mouse model assessed as increase duration in novel arm at 5 mg/kg,ip qd for 10 days by Y-maze test relative to control; assay type: functional, organism-based; details: time 10.0 day
[12] = system: Mus musculus; assay: Antialzheimer activity in human oligo-merized amyloid beta (1 to 42 residues)-induced cognitive impairment C57BL/6 mouse model assessed as decrease IL-1beta level in cortex at 5 mg/kg,ip qd for 10 days by ELISA; assay type: functional, organism-based; details: time 10.0 day
[13] = system: Mus musculus; assay: Antialzheimer activity in human oligo-merized amyloid beta (1 to 42 residues)-induced cognitive impairment C57BL/6 mouse model assessed as decrease TNF-alpha level in cortex at 5 mg/kg,ip qd for 10 days by ELISA; assay type: functional, organism-based; details: time 10.0 day
[14] = in vivo; details: ICR, mouse, po
Description: Acute toxicity in ICR mouse assessed as lethality at 21.30 to 52 mg/kg, po and measured upto 14 days

[15] = target: T1, Amyloid-beta precursor protein (Homo sapiens, UniProt P05067); assay: Inhibition of Cu2+ induced amyloid beta (1 to 42 ) (unknown origin) aggregation incubated for 24 hr by Thioflavin T based fluorometric assay
[16] = target: T1, Amyloid-beta precursor protein; assay: Inhibition of Cu2+ induced amyloid beta (1 to 42 ) (unknown origin) aggregation assessed as reduction in fibrils incubated for 24 hr by TEM analysis
[17] = target: T1, Amyloid-beta precursor protein; assay: Inhibition of amyloid beta (1 to 42 ) (unknown origin) self aggregation incubated for 24 hr by Thioflavin T based fluorometric assay
[18] = Metal chelating activity assessed as Cu2+-compound complex formation by measuring red shift in presence of CuSO4 at 40 uM incubated for 30 mins by UV-Visible spectrophotometry
[19] = Metal chelating activity assessed as Fe2+-compound complex formation by measuring red shift in presence of FeSO4 at 40 uM incubated for 30 mins by UV-Visible spectrophotometry
[20] = Metal chelating activity assessed as Fe3+-compound complex formation by measuring red shift in presence of FeCl3 at 40 uM incubated for 30 mins by UV-Visible spectrophotometry
[21] = Metal chelating activity assessed as Zn2+-compound complex formation by measuring red shift in presence of ZnCl2 at 40 uM incubated for 30 mins by UV-Visible spectrophotometry
[22] = Metal chelating activity assessed as Al3+-compound complex formation by measuring blue shift in presence of AlCl3 at 40 uM incubated for 30 mins by UV-Visible spectrophotometry

T1 sequence (P05067 whole entry): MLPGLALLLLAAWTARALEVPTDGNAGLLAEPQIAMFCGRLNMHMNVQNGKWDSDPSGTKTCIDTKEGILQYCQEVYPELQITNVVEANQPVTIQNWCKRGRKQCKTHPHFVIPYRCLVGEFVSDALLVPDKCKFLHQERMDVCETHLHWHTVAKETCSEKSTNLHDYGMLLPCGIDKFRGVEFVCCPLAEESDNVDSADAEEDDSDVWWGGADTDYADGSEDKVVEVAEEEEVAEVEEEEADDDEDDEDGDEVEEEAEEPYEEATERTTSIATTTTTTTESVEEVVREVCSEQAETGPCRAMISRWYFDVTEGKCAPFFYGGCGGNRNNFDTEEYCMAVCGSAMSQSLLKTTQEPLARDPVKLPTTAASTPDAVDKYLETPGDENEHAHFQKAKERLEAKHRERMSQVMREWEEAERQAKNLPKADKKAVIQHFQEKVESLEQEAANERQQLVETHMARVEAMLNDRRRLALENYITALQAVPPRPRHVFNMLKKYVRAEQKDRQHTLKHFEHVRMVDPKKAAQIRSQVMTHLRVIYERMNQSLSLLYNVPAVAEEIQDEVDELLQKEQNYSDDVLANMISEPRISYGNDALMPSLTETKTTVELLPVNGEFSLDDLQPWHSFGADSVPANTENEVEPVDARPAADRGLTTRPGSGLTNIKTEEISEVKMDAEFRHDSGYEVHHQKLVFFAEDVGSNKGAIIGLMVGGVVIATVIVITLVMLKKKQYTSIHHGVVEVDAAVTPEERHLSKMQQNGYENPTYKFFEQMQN
Sequence of Acetylcholinesterase (O42275 whole entry): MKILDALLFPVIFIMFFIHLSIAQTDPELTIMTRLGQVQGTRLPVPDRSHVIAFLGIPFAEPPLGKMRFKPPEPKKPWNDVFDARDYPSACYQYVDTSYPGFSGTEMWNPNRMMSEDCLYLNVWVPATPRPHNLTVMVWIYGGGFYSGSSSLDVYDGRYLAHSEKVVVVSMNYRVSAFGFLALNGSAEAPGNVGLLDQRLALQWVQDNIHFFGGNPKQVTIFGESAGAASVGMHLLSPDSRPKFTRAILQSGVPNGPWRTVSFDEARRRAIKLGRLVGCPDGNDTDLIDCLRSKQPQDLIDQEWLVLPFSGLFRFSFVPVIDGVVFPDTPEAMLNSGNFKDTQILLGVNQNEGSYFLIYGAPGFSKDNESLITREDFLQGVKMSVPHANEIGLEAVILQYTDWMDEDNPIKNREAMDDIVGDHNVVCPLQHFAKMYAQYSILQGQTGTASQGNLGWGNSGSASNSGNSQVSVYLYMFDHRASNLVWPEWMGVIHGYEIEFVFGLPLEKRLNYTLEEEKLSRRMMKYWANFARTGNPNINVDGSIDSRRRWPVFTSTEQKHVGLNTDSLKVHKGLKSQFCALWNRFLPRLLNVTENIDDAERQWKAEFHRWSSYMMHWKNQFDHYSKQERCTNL

SMILES | IC50 [1] | also measured
Oc1c(Cl)cc(Cl)c2ccc(/C=C/C3=CCN(Cc4ccc(F)cc4)CC3)nc12 | 270 nM | –
Oc1cccc2ccc(/C=C/C3=CCN(Cc4cccc(F)c4)CC3)nc12 | 720 nM | –
Cc1ccc(CN2CC=C(/C=C/c3ccc4cccc(O)c4n3)CC2)cc1 | 260 nM | –
Oc1c(Cl)cc(Cl)c2ccc(/C=C/C3=CCN(Cc4ccccc4)CC3)nc12 | 2310 nM | –
Oc1c(Cl)cc(Cl)c2ccc(/C=C/C3=CCN(Cc4cccc(F)c4)CC3)nc12 | 520 nM | –
Oc1cccc2ccc(/C=C/C3=CCN(Cc4ccc(C(F)(F)F)cc4)CC3)nc12 | 320 nM | –
Oc1c(Cl)cc(Cl)c2ccc(/C=C/C3=CCN(Cc4ccc(C(F)(F)F)cc4)CC3)nc12 | 280 nM | –
Oc1c(Cl)cc(Cl)c2ccc(/C=C/C3=CCN(Cc4ccccc4Cl)CC3)nc12 | 410 nM | –
COc1cc2c(cc1OC)C(=O)C(CC1CCN(Cc3ccccc3)CC1)C2 (configuration not stated) [DONEPEZIL] | – | IC50 [2]: 326000 nM; Activity [3]: Active; IC50 [4]: 202000 nM; Activity [5]: Active; Activity [6]: Active; IC50 [7]: 35000 nM; IC50 [8]: 155000 nM; Activity [9]: Active; Activity [10]: Active; Activity [11]: Active; Activity [12]: Active; Activity [13]: Active; LD50 at 336 h [14]: 28.1 mg/kg
Oc1cccc2ccc(/C=C/C3=CCN(Cc4ccc(F)cc4)CC3)nc12 | 1660 nM | –
Cc1cccc(CN2CC=C(/C=C/c3ccc4cccc(O)c4n3)CC2)c1 | 430 nM | –
Oc1c(Cl)cc(Cl)c2ccc(/C=C/C3=CCN(Cc4cccc(Cl)c4)CC3)nc12 | 330 nM | –
Cc1ccccc1CN1CC=C(/C=C/c2ccc3cccc(O)c3n2)CC1 | 400 nM | –
Oc1cccc2ccc(/C=C/C3=CCN(Cc4cccc(C(F)(F)F)c4)CC3)nc12 | 550 nM | –
Oc1c(Cl)cc(Cl)c2ccc(/C=C/C3=CCN(Cc4ccc(Cl)cc4)CC3)nc12 | 620 nM | –
Oc1c(I)cc(Cl)c2cccnc12 | – | inhibition [15]: Active; inhibition [16]: Active; inhibition [17]: inactive
Oc1cccc2ccc(/C=C/C3=CCN(Cc4cccc(Br)c4)CC3)nc12 | 1530 nM | –

SMILES | IC50 [1] | also measured
Cc1ccccc1CN1CC=C(/C=C/c2ccc3c(Cl)cc(Cl)c(O)c3n2)CC1 | 560 nM | –
Cc1cccc(CN2CC=C(/C=C/c3ccc4c(Cl)cc(Cl)c(O)c4n3)CC2)c1 | 250 nM | Activity [18]: Active; Activity [19]: Active; Activity [20]: inactive; Activity [21]: inactive; Activity [22]: Active
Oc1c(Cl)cc(Cl)c2ccc(/C=C/C3=CCN(Cc4cccc(Br)c4)CC3)nc12 | 320 nM | –
Cc1ccc(CN2CC=C(/C=C/c3ccc4c(Cl)cc(Cl)c(O)c4n3)CC2)cc1 | 540 nM | –
Oc1c(Cl)cc(Cl)c2ccc(/C=C/C3=CCN(Cc4ccccc4Br)CC3)nc12 | 540 nM | –
Oc1c(Cl)cc(Cl)c2ccc(/C=C/C3=CCN(Cc4ccc(Br)cc4)CC3)nc12 | 640 nM | –
Oc1cccc2ccc(/C=C/C3=CCN(Cc4ccccc4Br)CC3)nc12 | 490 nM | –
Oc1c(Cl)cc(Cl)c2ccc(/C=C/C3=CCN(Cc4cccc(C(F)(F)F)c4)CC3)nc12 | 700 nM | –
Oc1c(Cl)cc(Cl)c2ccc(/C=C/C3=CCN(Cc4ccccc4C(F)(F)F)CC3)nc12 | 340 nM | –
Oc1cccc2ccc(/C=C/C3=CCN(Cc4ccccc4)CC3)nc12 | 1110 nM | –
Oc1cccc2ccc(/C=C/C3=CCN(Cc4ccccc4F)CC3)nc12 | 570 nM | –
Oc1cccc2ccc(/C=C/C3=CCN(Cc4cccc(Cl)c4)CC3)nc12 | 750 nM | –
Oc1cccc2ccc(/C=C/C3=CCN(Cc4ccccc4Cl)CC3)nc12 | 1290 nM | –
Oc1c(Cl)cc(Cl)c2ccc(/C=C/C3=CCN(Cc4ccccc4F)CC3)nc12 | 290 nM | –
Oc1cccc2ccc(/C=C/C3=CCN(Cc4ccc(Br)cc4)CC3)nc12 | 260 nM | –
Oc1cccc2ccc(/C=C/C3=CCN(Cc4ccc(Cl)cc4)CC3)nc12 | 3050 nM | –
